In brackets after ≈: the same amount, converted by molar mass.
Assays:
Assay type in all cases: functional
Staphylococcus aureus [1] = assay: Antibacterial activity against Staphylococcus aureus ATCC 29213 by NCCLS method
Staphylococcus aureus [2] = assay: Antibacterial activity against multidrug-resistant Staphylococcus aureus BAA-39 by NCCLS method
Staphylococcus aureus [3] = assay: Antibacterial activity against methicillin-resistant Staphylococcus aureus ATCC 33591 by NCCLS method
[4] = tested on: Staphylococcus epidermidis; assay: Antibacterial activity against Staphylococcus epidermidis ATCC 12228 by NCCLS method
[5] = tested on: Staphylococcus epidermidis; assay: Antibacterial activity against methicillin-resistant Staphylococcus epidermidis ATCC 51625 by NCCLS method
Streptococcus pneumoniae = assay: Antibacterial activity against Streptococcus pneumoniae ATCC 6301 by NCCLS method
Enterococcus faecalis = assay: Antibacterial activity against vancomycin-resistant Enterococcus faecalis ATCC 51575 by NCCLS method
Enterococcus faecium = assay: Antibacterial activity against vancomycin-resistant Enterococcus faecium ATCC 700221 by NCCLS method
Bacillus subtilis = assay: Antibacterial activity against Bacillus subtilis ATCC 23857 by NCCLS method
Bacillus cereus = assay: Antibacterial activity against Bacillus cereus ATCC 11778 by NCCLS method
Bacteroides fragilis = assay: Antibacterial activity against Bacteroides fragilis ATCC 23745 by NCCLS method
Clostridium perfringens = assay: Antibacterial activity against Clostridium perfringens ATCC 10388 by NCCLS method

SMILES: CCCCNC(=N)c1ccc2[nH]c(-c3ccc(CCc4ccc(-c5nc6cc(C(=N)NCCCC)ccc6[nH]5)cc4)cc3)nc2c1
- MIC (Staphylococcus aureus [1]): 4 µg/mL (≈ 6.55 µM)
- MIC (Staphylococcus aureus [2]): 4 µg/mL (≈ 6.55 µM)
- MIC (Staphylococcus aureus [3]): 2 µg/mL (≈ 3.27 µM)
- MIC [4]: 0.25 µg/mL (≈ 0.409 µM)
- MIC [5]: 0.5 µg/mL (≈ 0.819 µM)
- MIC (Streptococcus pneumoniae): 1 µg/mL (≈ 1.64 µM)
- MIC (Enterococcus faecalis): 32 µg/mL (≈ 52.4 µM)
- MIC (Enterococcus faecium): 2 µg/mL (≈ 3.27 µM)
- MIC (Bacillus subtilis): 1 µg/mL (≈ 1.64 µM)
- MIC (Bacillus cereus): 4 µg/mL (≈ 6.55 µM)
- MIC (Bacteroides fragilis): 32 µg/mL (≈ 52.4 µM)
- MIC (Clostridium perfringens): 0.5 µg/mL (≈ 0.819 µM)

SMILES: CN[C@H](CC(C)C)C(=O)N[C@H]1C(=O)N[C@@H](CC(N)=O)C(=O)N[C@H]2C(=O)N[C@H]3C(=O)N[C@H](C(=O)N[C@H](C(=O)O)c4cc(O)cc(O)c4-c4cc3ccc4O)[C@H](O)c3ccc(c(Cl)c3)Oc3cc2cc(c3O[C@@H]2O[C@H](CO)[C@@H](O)[C@H](O)[C@H]2O[C@H]2C[C@](C)(N)[C@H](O)[C@H](C)O2)Oc2ccc(cc2Cl)[C@H]1O [VANCOMYCIN]
- MIC (Streptococcus pneumoniae): 1 µg/mL (≈ 0.69 µM)
- MIC (Enterococcus faecalis): > 64 µg/mL
- MIC (Enterococcus faecium): > 64 µg/mL
- MIC (Bacillus subtilis): 0.12 µg/mL (≈ 0.0828 µM)
- MIC (Bacteroides fragilis): 4 µg/mL (≈ 2.76 µM)
- MIC (Clostridium perfringens): 0.12 µg/mL (≈ 0.0828 µM)

SMILES: CC(C)NC(=N)c1ccc(CCc2ccc(-c3nc4cc(C(=N)NC(C)C)ccc4[nH]3)cc2)cc1
- MIC (Staphylococcus aureus [1]): 4 µg/mL (≈ 8.57 µM)
- MIC (Staphylococcus aureus [2]): 8 µg/mL (≈ 17.1 µM)
- MIC (Staphylococcus aureus [3]): 4 µg/mL (≈ 8.57 µM)
- MIC [4]: 0.25 µg/mL (≈ 0.536 µM)
- MIC [5]: 1 µg/mL (≈ 2.14 µM)
- MIC (Streptococcus pneumoniae): 0.12 µg/mL (≈ 0.257 µM)
- MIC (Enterococcus faecalis): 2 µg/mL (≈ 4.29 µM)
- MIC (Enterococcus faecium): 1 µg/mL (≈ 2.14 µM)
- MIC (Bacillus subtilis): 1 µg/mL (≈ 2.14 µM)
- MIC (Bacillus cereus): 0.5 µg/mL (≈ 1.07 µM)
- MIC (Bacteroides fragilis): 32 µg/mL (≈ 68.6 µM)
- MIC (Clostridium perfringens): > 32 µg/mL

SMILES: N=C(c1ccc2[nH]c(-c3ccc(CCc4ccc(-c5nc6cc(C(=N)N7CCCC7)ccc6[nH]5)cc4)cc3)nc2c1)N1CCCC1
- MIC (Staphylococcus aureus [1]): 0.5 µg/mL (≈ 0.824 µM)
- MIC (Staphylococcus aureus [2]): 0.5 µg/mL (≈ 0.824 µM)
- MIC (Staphylococcus aureus [3]): 0.25 µg/mL (≈ 0.412 µM)
- MIC [4]: 0.25 µg/mL (≈ 0.412 µM)
- MIC [5]: 0.25 µg/mL (≈ 0.412 µM)
- MIC (Streptococcus pneumoniae): > 32 µg/mL
- MIC (Enterococcus faecalis): 16 µg/mL (≈ 26.4 µM)
- MIC (Enterococcus faecium): 2 µg/mL (≈ 3.3 µM)
- MIC (Bacillus subtilis): 2 µg/mL (≈ 3.3 µM)
- MIC (Bacillus cereus): 1 µg/mL (≈ 1.65 µM)
- MIC (Bacteroides fragilis): 2 µg/mL (≈ 3.3 µM)
- MIC (Clostridium perfringens): 2 µg/mL (≈ 3.3 µM)

SMILES: CC1(C)S[C@@H]2[C@H](NC(=O)Cc3ccccc3)C(=O)N2[C@H]1C(=O)O [PENICILLIN G]
- MIC (Staphylococcus aureus [1]): 1 µg/mL (≈ 2.99 µM)
- MIC (Staphylococcus aureus [2]): > 32 µg/mL
- MIC (Staphylococcus aureus [3]): > 32 µg/mL
- MIC [4]: 32 µg/mL (≈ 95.7 µM)
- MIC [5]: 32 µg/mL (≈ 95.7 µM)
- MIC (Streptococcus pneumoniae): < 0.06 µg/mL
- MIC (Enterococcus faecalis): 4 µg/mL (≈ 12 µM)
- MIC (Enterococcus faecium): > 32 µg/mL
- MIC (Bacillus subtilis): < 0.06 µg/mL
- MIC (Bacillus cereus): > 4 µg/mL
- MIC (Bacteroides fragilis): 4 µg/mL (≈ 12 µM)
- MIC (Clostridium perfringens): ≤ 0.06 µg/mL

SMILES: CC(C)NC(=N)c1ccc2[nH]c(-c3ccc(CCc4cc(-c5nc6cc(C(=N)NC(C)C)ccc6[nH]5)cs4)cc3)nc2c1
- MIC (Staphylococcus aureus [1]): 1 µg/mL (≈ 1.7 µM)
- MIC (Staphylococcus aureus [2]): 1 µg/mL (≈ 1.7 µM)
- MIC (Staphylococcus aureus [3]): 0.25 µg/mL (≈ 0.425 µM)
- MIC [5]: 0.25 µg/mL (≈ 0.425 µM)
- MIC (Streptococcus pneumoniae): 0.12 µg/mL (≈ 0.204 µM)
- MIC (Enterococcus faecalis): 1 µg/mL (≈ 1.7 µM)
- MIC (Enterococcus faecium): 0.25 µg/mL (≈ 0.425 µM)
- MIC (Bacillus subtilis): 0.5 µg/mL (≈ 0.849 µM)
- MIC (Bacillus cereus): 0.25 µg/mL (≈ 0.425 µM)
- MIC (Bacteroides fragilis): 1 µg/mL (≈ 1.7 µM)
- MIC (Clostridium perfringens): 0.25 µg/mL (≈ 0.425 µM)

SMILES: c1cc(-c2nc3cc(C4=NCCN4)ccc3[nH]2)ccc1CCc1ccc(-c2nc3cc(C4=NCCN4)ccc3[nH]2)cc1
- MIC (Staphylococcus aureus [1]): > 64 µg/mL
- MIC (Staphylococcus aureus [2]): > 64 µg/mL
- MIC (Staphylococcus aureus [3]): > 64 µg/mL
- MIC [4]: > 64 µg/mL
- MIC [5]: > 64 µg/mL
- MIC (Streptococcus pneumoniae): > 64 µg/mL
- MIC (Enterococcus faecalis): > 64 µg/mL
- MIC (Enterococcus faecium): > 64 µg/mL
- MIC (Bacillus subtilis): > 64 µg/mL
- MIC (Bacillus cereus): > 64 µg/mL
- MIC (Bacteroides fragilis): > 64 µg/mL
- MIC (Clostridium perfringens): > 64 µg/mL

SMILES: CC(C)NC(=N)c1ccc2[nH]c(-c3ccc(CCc4ccc(-c5nc6ccccc6[nH]5)cc4)cc3)nc2c1
- MIC (Staphylococcus aureus [1]): > 32 µg/mL
- MIC (Staphylococcus aureus [2]): > 32 µg/mL
- MIC (Staphylococcus aureus [3]): > 32 µg/mL
- MIC [4]: 4 µg/mL (≈ 8.02 µM)
- MIC [5]: 8 µg/mL (≈ 16 µM)
- MIC (Streptococcus pneumoniae): > 32 µg/mL
- MIC (Enterococcus faecalis): > 32 µg/mL
- MIC (Enterococcus faecium): 16 µg/mL (≈ 32.1 µM)
- MIC (Bacillus subtilis): > 32 µg/mL
- MIC (Bacillus cereus): 32 µg/mL (≈ 64.2 µM)
- MIC (Bacteroides fragilis): > 32 µg/mL
- MIC (Clostridium perfringens): 1 µg/mL (≈ 2.01 µM)

SMILES: N=C(NC1CC1)c1ccc2[nH]c(-c3ccc(CCc4ccc(-c5nc6cc(C(=N)NC7CC7)ccc6[nH]5)cc4)cc3)nc2c1
- MIC (Staphylococcus aureus [1]): 8 µg/mL (≈ 13.8 µM)
- MIC (Staphylococcus aureus [2]): 16 µg/mL (≈ 27.6 µM)
- MIC (Staphylococcus aureus [3]): 8 µg/mL (≈ 13.8 µM)
- MIC [4]: 0.12 µg/mL (≈ 0.207 µM)
- MIC [5]: 0.25 µg/mL (≈ 0.432 µM)
- MIC (Streptococcus pneumoniae): < 0.06 µg/mL
- MIC (Enterococcus faecalis): 32 µg/mL (≈ 55.3 µM)
- MIC (Enterococcus faecium): 1 µg/mL (≈ 1.73 µM)
- MIC (Bacillus subtilis): 1 µg/mL (≈ 1.73 µM)
- MIC (Bacillus cereus): 0.25 µg/mL (≈ 0.432 µM)
- MIC (Bacteroides fragilis): 32 µg/mL (≈ 55.3 µM)
- MIC (Clostridium perfringens): 1 µg/mL (≈ 1.73 µM)

— ChEMBL document CHEMBL1153280, “Synthesis and in vitro activity of dicationic bis-benzimidazoles as a new class of anti-MRSA and anti-VRE agents” (2009)
